test system: Nrf2 transcriptional activity (pARE-Luc reporter) in HepG2 cells; experiment: In vitro Nrf2 transcriptional activity measurement by ARE-dependent reporter assay in HepG2 cell; type: cell-based, human; details: Homo sapiens; HepG2 cells transfected with pARE-Luc, 4 hours at 37° C.; luciferase activity of Example 1-54 or Example 17-23 at 3.75 μM defined as 100%
How it was run: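 Luminescence readout (Bright-Glo) after 4 h, 37° C compound exposure of HepG2 cells carrying the ARE-luciferase vector pGL4.37. Each well converted to % response versus reference compound at 3.75 μM, and EC50 derived from dose-response curves.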

Q: For `O=C(O)c1cc(F)c(-c2cccc3c2OCN(C(=O)c2c(Cl)cc(N4CC5(C4)CC(F)(F)C5)cc2Cl)C3)cc1N1C2CCC1COC2` [Compound 16-7, 4-[3-[2,6-Dichloro-4-(6,6-difluoro-2-azaspiro[3.3]heptan-2-yl)benzoyl]-2,4-dihydro-1,3-benzoxazin-8-yl]-5-fluoro-2-(3-oxa-8-azabicyclo[3.2.1]octan-8-yl)benzoic acid], which EC50 is on record?
A: 1.4 nM

Q: Which EC50 does the source give for `O=C(O)c1cc(F)c(-c2cccc3c2OCN(C(=O)c2c(Cl)cc(N4CC5(CC(F)C5)C4)cc2Cl)C3)cc1N1C2CCC1COC2` [Compound 16-8, 4-[3-[2,6-Dichloro-4-(6-fluoro-2-azaspiro[3.3]heptan-2-yl)benzoyl]-2,4-dihydro-1,3-benzoxazin-8-yl]-5-fluoro-2-(3-oxa-8-azabicyclo[3.2.1]octan-8-yl)benzoic acid] here?
A: 3.9 nM

Q: Which EC50 does the source give for `Cn1nnc(-c2cc(Cl)c(C(=O)N3COc4c(cccc4-c4cc(N5C6CCC5COC6)c(C(=O)O)cc4F)C3)c(Cl)c2)n1` [Compound 16-9, 4-[3-[2,6-Dichloro-4-(2-methyltetrazol-5-yl)benzoyl]-2,4-dihydro-1,3-benzoxazin-8-yl]-5-fluoro-2-(3-oxa-8-azabicyclo[3.2.1]octan-8-yl)benzoic acid] here?
A: 12 nM

Q: Which EC50 does the source give for `CC(C)Sc1cc(Cl)c(C(=O)N2COc3c(cccc3-c3ccc(C(=O)O)c(N4CCOCC4)c3)C2)c(Cl)c1` [Compound 16-10, 4-[3-(2,6-Dichloro-4-propan-2-ylsulfanylbenzoyl)-2,4-dihydro-1,3-benzoxazin-8-yl]-2-morpholin-4-ylbenzoic acid] here?
A: 9.3 nM

Q: `COCCN1CCC(c2cc(Cl)c(C(=O)N3COc4c(cccc4-c4cc(N5CCOCC5)c(C(=O)O)cc4F)C3)c(Cl)c2)CC1` [Compound 16-11, 4-[3-[2,6-Dichloro-4-[1-(2-methoxyethyl)piperidin-4-yl]benzoyl]-2,4-dihydro-1,3-benzoxazin-8-yl]-5-fluoro-2-morpholin-4-ylbenzoic acid] was tested. Which EC50 did it give?
A: 7.5 nM

Q: For `O=C(O)c1cc(F)c(-c2cccc3c2OCN(C(=O)c2c(Cl)cc(C4COC4)cc2Cl)C3)cc1N1CCOCC1` [Compound 16-12, 4-[3-[2,6-Dichloro-4-(oxetan-3-yl)benzoyl]-2,4-dihydro-1,3-benzoxazin-8-yl]-5-fluoro-2-morpholin-4-ylbenzoic acid], which EC50 is on record?
A: 9.8 nM

Q: For `C[C@@H]1CN(C)CCN1c1cc(Cl)c(C(=O)N2COc3c(cccc3-c3cc(N(C)[C@@H]4CCOC4)c(C(=O)O)cc3F)C2)c(Cl)c1` [Compound 16-13, 4-[3-[2,6-Dichloro-4-[(2R)-2,4-dimethylpiperazin-1-yl]benzoyl]-2,4-dihydro-1,3-benzoxazin-8-yl]-5-fluoro-2-[methyl-[(3R)-oxolan-3-yl]amino]benzoic acid], which EC50 is on record?
A: 4.4 nM

Q: How did the EC50 turn out when `CN(c1cc(-c2cccc3c2OCN(C(=O)c2c(Cl)cc(-c4cnn(C)c4)cc2Cl)C3)c(F)cc1C(=O)O)C1(C)COC1` [Compound 16-14, 4-[3-[2,6-Dichloro-4-(1-methylpyrazol-4-yl)benzoyl]-2,4-dihydro-1,3-benzoxazin-8-yl]-5-fluoro-2-[methyl-(3-methyloxetan-3-yl)amino]benzoic acid] was run?
A: 6.8 nM

Q: How did the EC50 turn out when `O=C(O)c1cc(F)c(-c2cccc3c2OCN(C(=O)c2c(Cl)cc(N4CC5(COCCO5)C4)cc2Cl)C3)cc1N1C2CCC1COC2` [Compound 16-15, 4-[3-[2,6-Dichloro-4-(5,8-dioxa-2-azaspiro[3.5]nonan-2-yl)benzoyl]-2,4-dihydro-1,3-benzoxazin-8-yl]-5-fluoro-2-(3-oxa-8-azabicyclo[3.2.1]octan-8-yl)benzoic acid] was run?
A: 3 nM

Q: With `N#CC1(F)CN(c2cc(Cl)c(C(=O)N3COc4c(cccc4-c4cc(N5C6CCC5COC6)c(C(=O)O)cc4F)C3)c(Cl)c2)C1` [Compound 16-16, 4-[3-[2,6-Dichloro-4-(3-cyano-3-fluoroazetidin-1-yl)benzoyl]-2,4-dihydro-1,3-benzoxazin-8-yl]-5-fluoro-2-(3-oxa-8-azabicyclo[3.2.1]octan-8-yl)benzoic acid] as the compound, how does the EC50 read?
A: 13 nM

Q: Which EC50 does the source give for `COCC(F)(F)CN1CC2(C1)CN(c1cc(Cl)c(C(=O)N3COc4c(cccc4-c4cc(N5C6CCC5COC6)c(C(=O)O)cc4F)C3)c(Cl)c1)C2` [Compound 16-17, 4-[3-[2,6-Dichloro-4-[6-(2,2-difluoro-3-methoxypropyl)-2,6-diazaspiro[3.3]heptan-2-yl]benzoyl]-2,4-dihydro-1,3-benzoxazin-8-yl]-5-fluoro-2-(3-oxa-8-azabicyclo[3.2.1]octan-8-yl)benzoic acid] here?
A: 2.7 nM

Q: Which EC50 does the source give for `CC[C@@H](c1cccc2c1C(=O)NN(C(=O)c1c(Cl)cc(-c3cnn(C)c3)cc1Cl)C2)[C@H](C)C(=O)O` [Compound 17-1, (2S,3R)-3-[2-[2,6-Dichloro-4-(1-methylpyrazol-4-yl)benzoyl]-4-oxo-1,3-dihydrophthalazin-5-yl]-2-methylpentanoic acid] here?
A: 2.2 nM

Q: `CC[C@@H](c1cccc2c1CON(C(=O)c1c(Cl)cc(-c3cnn(C)c3)cc1Cl)C2)[C@H](C)C(=O)O` [Compound 17-2, (2S,3R)-3-[3-[2,6-Dichloro-4-(1-methylpyrazol-4-yl)benzoyl]-1,4-dihydro-2,3-benzoxazin-8-yl]-2-methylpentanoic acid] was tested. Which EC50 did it give?
A: 7.7 nM

Q: With `CC[C@@H](c1cccc2c1OCN(C(=O)c1c(Cl)cc(-c3cnn(C)c3)cc1Cl)C2)[C@H](C)C(=O)O` [Compound 17-3, (2S,3R)-3-[3-[2,6-Dichloro-4-(1-methylpyrazol-4-yl)benzoyl]-2,4-dihydro-1,3-benzoxazin-8-yl]-2-methylpentanoic acid] as the compound, how does the EC50 read?
A: 9.7 nM

Q: How did the EC50 turn out when `CC[C@H](CC(=O)O)c1cccc2c1C(=O)NN(C(=O)c1c(Cl)cc(-c3cnn(C)c3)cc1Cl)C2` [Compound 17-4, (3R)-3-[2-[2,6-Dichloro-4-(1-methylpyrazol-4-yl)benzoyl]-4-oxo-1,3-dihydrophthalazin-5-yl]pentanoic acid] was run?
A: 10 nM

Q: `CC[C@@H](c1cccc2c1C(=O)NN(C(=O)c1c(Cl)cc(-c3cnn(C)c3)cc1Cl)C2)[C@@H](C)C(=O)O` [Compound 17-5, (2R,3R)-3-[2-[2,6-Dichloro-4-(1-methylpyrazol-4-yl)benzoyl]-4-oxo-1,3-dihydrophthalazin-5-yl]-2-methylpentanoic acid] was tested. Which EC50 did it give?
A: 17 nM

Q: How did the EC50 turn out when `CC[C@@H](c1cccc2c1CCN(C(=O)c1c(Cl)cc(-c3cnn(C)c3)cc1Cl)C2)[C@H](C)C(=O)O` [Compound 17-8, (2S,3R)-3-[2-[2,6-Dichloro-4-(1-methylpyrazol-4-yl)benzoyl]-3,4-dihydro-1H-isoquinolin-5-yl]-2-methylpentanoic acid] was run?
A: 20 nM

Q: Which EC50 does the source give for `CCC(CC(=O)O)c1cccc2c1C(=O)NN(C(=O)c1c(Cl)cc(-c3cnn(C)c3)cc1Cl)C2` (stereo not drawn) [Compound 17-9, 3-[2-[2,6-Dichloro-4-(1-methylpyrazol-4-yl)benzoyl]-4-oxo-1,3-dihydrophthalazin-5-yl]pentanoic acid] here?
A: 21 nM

Q: `CC[C@@H](c1cccc2c1CCN(C(=O)c1c(Br)cc(-c3cnn(C)c3)cc1Br)C2)[C@H](C)C(=O)O` [Compound 17-10, (2S,3R)-3-[2-[2,6-Dibromo-4-(1-methylpyrazol-4-yl)benzoyl]-3,4-dihydro-1H-isoquinolin-5-yl]-2-methylpentanoic acid] was tested. Which EC50 did it give?
A: 21 nM

Q: `Cc1c(C(CC(=O)O)c2cccc3c2CCN(C(=O)c2c(Cl)cc(-c4cnn(C)c4)cc2Cl)C3)ccc2c1nnn2C` (stereo not drawn) [Compound 17-15, 3-[2-[2,6-Dichloro-4-(1-methylpyrazol-4-yl)benzoyl]-3,4-dihydro-1H-isoquinolin-5-yl]-3-(1,4-dimethylbenzotriazol-5-yl)propanoic acid] was tested. Which EC50 did it give?
A: 58 nM

Q: With `Cc1c(C(CC(=O)O)c2cccc3c2CON(C(=O)c2c(Cl)cc(-c4cnn(C)c4)cc2Cl)C3)ccc2c1nnn2C` (stereo not drawn) [Compound 17-16, 3-[3-[2,6-Dichloro-4-(1-methylpyrazol-4-yl)benzoyl]-1,4-dihydro-2,3-benzoxazin-8-yl]-3-(1,4-dimethylbenzotriazol-5-yl)propanoic acid] as the compound, how does the EC50 read?
A: 74 nM

Q: For `Cn1cc(-c2cc(Cl)c(C(=O)N3CCc4c(cccc4-c4ccc(C(=O)O)c(N5CCOCC5)c4)C3)c(Cl)c2)cn1` [Compound 17-18, 4-[2-[2,6-Dichloro-4-(1-methylpyrazol-4-yl)benzoyl]-3,4-dihydro-1H-isoquinolin-5-yl]-2-morpholin-4-ylbenzoic acid], which EC50 is on record?
A: 97 nM

Q: `Cn1cc(-c2cc(Cl)c(C(=O)N3CSc4c(cccc4-c4ccc(C(=O)O)c(N5CCOCC5)c4)C3)c(Cl)c2)cn1` [Compound 17-21, 4-[3-[2,6-Dichloro-4-(1-methylpyrazol-4-yl)benzoyl]-2,4-dihydro-1,3-benzothiazin-8-yl]-2-morpholin-4-ylbenzoic acid] was tested. Which EC50 did it give?
A: 22 nM

Q: How did the EC50 turn out when `COCCOc1cc(Cl)c(C(=O)N2CCc3c(cccc3[C@H](C)[C@H](C)C(=O)O)C2)c(Cl)c1` [Compound 17-23, (2S,3R)-3-[2-[2,6-Dichloro-4-(2-methoxyethoxy)benzoyl]-3,4-dihydro-1H-isoquinolin-5-yl]-2-methylbutanoic acid] was run?
A: 110 nM

Q: `C=Cc1cc(C(=O)N2COc3c(cccc3-c3cc(N4CCOCC4)c(C(=O)O)cc3F)C2)c(Cl)cc1OC` [Compound 18-1, 4-[3-(2-Chloro-5-ethenyl-4-methoxybenzoyl)-2,4-dihydro-1,3-benzoxazin-8-yl]-5-fluoro-2-morpholin-4-ylbenzoic acid] was tested. Which EC50 did it give?
A: 4.1 nM

Q: `COc1cc(Cl)c(C(=O)N2COc3c(cccc3-c3cc(N4CCOCC4)c(C(=O)O)cc3F)C2)cc1C1CC1` [Compound 18-2, 4-[3-(2-Chloro-5-cyclopropyl-4-methoxybenzoyl)-2,4-dihydro-1,3-benzoxazin-8-yl]-5-fluoro-2-morpholin-4-ylbenzoic acid] was tested. Which EC50 did it give?
A: 5.8 nM

Q: With `COc1cc(Cl)c(C(=O)N2COc3c(cccc3-c3cc(N4CCOCC4)c(C(=O)O)cc3F)C2)cc1C#N` [Compound 18-3, 4-[3-(2-Chloro-5-cyano-4-methoxybenzoyl)-2,4-dihydro-1,3-benzoxazin-8-yl]-5-fluoro-2-morpholin-4-ylbenzoic acid] as the compound, how does the EC50 read?
A: 14 nM
